For 16 molecules, IC50 results are on record in patent US11479551B2, “MTA-cooperative PRMT5 inhibitors” (Mirati Therapeutics, Inc., priority 2019, dated 2022).

Where only a bound is given, the exact number is not on record here.

One test relates to HCT116 parental cells. In words: Proliferation assay (CellTiter-Glo, 10 days of treatment), HCT116 parental. Particulars: Homo sapiens, HCT-116, 240 h. In kind it is cell-based. The procedure:
Control samples were analyzed in parallel.
Briefly, on Day 0, 250 HCT116 parental or HCT116 homozygous MTAP knockout cell were seeded in 96 well plates in McCoy's 5A supplemented with 10% fetal bovine serum and pen/strep and the cells were incubated overnight at 37° C. plus 5% CO2.
The following day, cells were treated with DMSO vehicle control or a dose response of PRMT5 inhibitors and incubated at 37 C plus 5% CO2 for five days. On Day 6, the cells were trypsinized and split 1:10 into new 96-well plates with fresh medium containing the same concentration of PRMT5 inhibitor and incubated for an additional 5 days at 37° C. plus 5% CO^2.
On Day 11, the viability of the cells was measured using a CTG assay kit (CellTiter-Glo; Promega cat.no G7573) in accordance with the manufacturer's instructions. The IC50 values for each compound after 10 days of treatment were calculated using GraphPad PRISM software.
(In general: In ATP-based viability assays light output follows the ATP content of the culture.)

In test [1] the test system is PRMT5-dependent Symmetric Di-methyl Arginine signal in HCT116 homozygous MTAP knockout cells. In words: SYM11 In-Cell Western, HCT116 MTAP knockout. It is filed as cell-based. Conditions: Homo sapiens, HCT-116, 96 h, HCT116 homozygous MTAP knockout cells, 4 days of treatment, SYM11/DRAQ5 ratio; read-out: In-cell-Western (SYM11) HCT116 MTAP_KO IC50.
The subject of test [2] is HCT116 homozygous MTAP knockout cells. Kind of test: Proliferation assay (CellTiter-Glo, 10 days of treatment), HCT116 MTAP knockout. In kind it is cell-based. Conditions: Homo sapiens, HCT-116, 240 h, read-out: Proliferation HCT116MTAP_KO IC50. In short, it runs like this:
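Viability of the CRISPR/Cas9 homozygous MTAP-knockout HCT116 line was read by CellTiter-Glo after 10 days of PRMT5 inhibitor exposure, with IC50 derived from the dose response. Compound was given the day after seeding and renewed at an identical concentration when cells were split 1:10 on day 6.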

In test [3] the test system is PRMT5-dependent Symmetric Di-methyl Arginine signal in HCT116 parental cells. In words: SYM11 In-Cell Western, HCT116 parental. It is filed as cell-based. Conditions: Homo sapiens, HCT-116, 96 h, 4 days of treatment, SYM11/DRAQ5 ratio. The essentials:
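HCT116 parental cells (2,000/well, McCoy's 5A with 10% FBS) dosed with PRMT5 inhibitors for four days at 37° C. Fixed in paraformaldehyde and methanol, then stained with SYM11 antibody and DRAQ5.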

The next test deals with PRMT5/MEP50 complex (Homo sapiens (Human), UniProt O14744). In words: PRMT5:MEP50 HotSpot Assay (full-length histone H2A substrate, plus and minus MTA). It is filed as biochemical. Conditions: IC50 + 2 μM MTA, in the presence of 2 μM MTA. The essentials: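 Tritium incorporated into recombinant full-length histone H2A was counted by scintillation after stopped reactions were captured on filter paper.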
Sequence of PRMT5/MEP50 complex (O14744 2-637): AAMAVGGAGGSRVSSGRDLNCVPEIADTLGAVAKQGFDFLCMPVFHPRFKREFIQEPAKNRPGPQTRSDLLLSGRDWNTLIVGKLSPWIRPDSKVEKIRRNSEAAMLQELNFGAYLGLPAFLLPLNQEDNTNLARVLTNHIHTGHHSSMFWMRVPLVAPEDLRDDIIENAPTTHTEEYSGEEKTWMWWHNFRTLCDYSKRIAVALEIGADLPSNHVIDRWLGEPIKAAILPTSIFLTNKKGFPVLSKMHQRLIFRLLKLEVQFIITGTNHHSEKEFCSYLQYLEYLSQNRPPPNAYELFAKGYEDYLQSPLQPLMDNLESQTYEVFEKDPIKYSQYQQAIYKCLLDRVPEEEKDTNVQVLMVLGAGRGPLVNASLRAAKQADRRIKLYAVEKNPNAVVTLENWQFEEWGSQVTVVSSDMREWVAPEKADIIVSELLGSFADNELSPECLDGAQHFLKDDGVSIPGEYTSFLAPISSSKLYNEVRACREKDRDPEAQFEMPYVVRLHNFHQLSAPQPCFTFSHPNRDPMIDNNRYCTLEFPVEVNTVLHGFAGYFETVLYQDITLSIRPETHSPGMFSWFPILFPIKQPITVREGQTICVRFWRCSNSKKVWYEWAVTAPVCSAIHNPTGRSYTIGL
Sequence of PRMT5/MEP50 complex (Q9BQA1 2-342 partner): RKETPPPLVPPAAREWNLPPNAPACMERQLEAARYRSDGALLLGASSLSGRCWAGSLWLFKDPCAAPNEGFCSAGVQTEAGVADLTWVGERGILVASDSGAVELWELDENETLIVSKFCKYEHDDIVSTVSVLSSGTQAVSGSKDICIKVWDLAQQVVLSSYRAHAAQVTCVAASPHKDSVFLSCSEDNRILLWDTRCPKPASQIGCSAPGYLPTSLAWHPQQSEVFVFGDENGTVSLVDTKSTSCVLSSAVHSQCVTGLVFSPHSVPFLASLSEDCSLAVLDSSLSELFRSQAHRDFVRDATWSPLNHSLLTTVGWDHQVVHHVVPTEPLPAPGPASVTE

For `COc1cc(-c2c(-c3ccc4c(=O)[nH]nc(CN)c4c3)cnn2C)c(C#N)c2ccccc12` [Example 4-205, 2-(4-(4-(aminomethyl)-1-oxo-1,2-dihydrophthalazin-6-yl)-1-methyl-1H-pyrazol-5-yl)-4-methoxy-1-naphthonitrile], the IC50 is 683 nM in the test on HCT116 parental cells; 6 nM in test [1]; 59 nM in test [2]; more than 1000 nM in test [3]; 23 nM on PRMT5/MEP50 complex.
As for `[2H]C([2H])(N)c1n[nH]c(=O)c2ccc(-c3cnn(C)c3-c3cccc(Cl)c3C#N)cc12` [Example 11-1, 2-(4-(4-(aminomethyl-d2)-1-oxo-1,2-dihydrophthalazin-6-yl)-1-methyl-1H-pyrazol-5-yl)-6-chlorobenzonitrile], the IC50 with HCT116 parental cells was more than 10000 nM; in test [1], 57 nM; in test [2] it was 807 nM; in test [3] it was more than 1000 nM; at PRMT5/MEP50 complex, 1970 nM.
Regarding `Cc1cccc2c(C#N)c(-c3c(-c4ccc5c(=O)[nH]nc(CN)c5c4)cnn3C)ccc12` [Example 12-9, 2-(4-(4-(aminomethyl)-1-oxo-1,2-dihydrophthalazin-6-yl)-1-methyl-1H-pyrazol-5-yl)-5-methyl-1-naphthonitrile], the IC50 with HCT116 parental cells is 3350 nM; in test [1] it was 9 nM; in test [2], 148 nM; in test [3], more than 10000 nM; on PRMT5/MEP50 complex, 178 nM.
For `Cn1ncc(-c2ccc3c(=O)[nH]nc(CN)c3c2)c1-c1cc(Cl)c(Cl)cc1C#N` [Example 4-164, 2-(4-(4-(aminomethyl)-1-oxo-1,2-dihydrophthalazin-6-yl)-1-methyl-1H-pyrazol-5-yl)-4,5-dichlorobenzonitrile], the IC50 in the test with HCT116 parental cells was more than 10000 nM; in test [1], 93.3 nM; in test [2], 583 nM; in test [3], more than 10000 nM; at PRMT5/MEP50 complex it was 464 nM.
As to `[2H]C([2H])(N)c1n[nH]c(=O)c2ccc(-c3cnn(C)c3-c3ccc4ccccc4c3C#N)cc12` [Example 11-2, 2-(4-(4-(aminomethyl-d2)-1-oxo-1,2-dihydrophthalazin-6-yl)-1-methyl-1H-pyrazol-5-yl)-1-naphthonitrile], the IC50 with HCT116 parental cells is 1950 nM; in test [1], 1 nM; in test [2], 94 nM; in test [3], more than 10000 nM; at PRMT5/MEP50 complex, 138 nM.
Take `Cc1cc(-c2c(-c3ccc4c(=O)[nH]nc(CN)c4c3)cnn2C)c(C#N)cc1Cl` [Example 4-132, 2-(4-(4-(aminomethyl)-1-oxo-1,2-dihydrophthalazin-6-yl)-1-methyl-1H-pyrazol-5-yl)-5-chloro-4-methylbenzonitrile]: the IC50 in the test on HCT116 parental cells was more than 10000 nM; in test [1], 24 nM; in test [2], 595 nM; in test [3], more than 10000 nM; on PRMT5/MEP50 complex, 2560 nM.
Regarding `Cn1ncc(-c2ccc3c(=O)[nH]nc(CN)c3c2)c1-c1cnn(Cc2ccccc2)c1Cl` [Example 4-187, 4-(aminomethyl)-6-(1′-benzyl-5′-chloro-2-methyl-1′H,2H-[3,4′-bipyrazol]-4-yl)phthalazin-1(2H)-one], the IC50 in the test on HCT116 parental cells is 1360 nM; in test [1], 7 nM; in test [2] it was 1900 nM; in test [3], 1000 nM; on PRMT5/MEP50 complex, 239 nM.
For `Cc1cc(C#N)c(-c2c(-c3ccc4c(=O)[nH]nc(CN)c4c3)cnn2C)cc1C` [Example 4-131, 2-(4-(4-(aminomethyl)-1-oxo-1,2-dihydrophthalazin-6-yl)-1-methyl-1H-pyrazol-5-yl)-4-5-dimethylbenzonitrile], in that order: more than 10000 nM, 43 nM, 847 nM, 3250 nM and 1890 nM.
The matching figures for `Cc1ccc(-c2c(-c3ccc4c(=O)[nH]nc(CN)c4c3)cnn2C)c(C#N)c1C` [Example 12-2, 6-(4-(4-(aminomethyl)-1-oxo-1,2-dihydrophthalazin-6-yl)-1-methyl-1H-pyrazol-5-yl)-2,3-dimethylbenzonitrile]: 208 nM, 16 nM, more than 10000 nM, 2200 nM and 315 nM.
On to `Cc1cc(Cl)cc(-c2c(-c3ccc4c(=O)[nH]nc(CN)c4c3)cnn2C)c1C#N` [Example 4-180, 2-(4-(4-(aminomethyl)-1-oxo-1,2-dihydrophthalazin-6-yl)-1-methyl-1H-pyrazol-5-yl)-4-chloro-6-methylbenzonitrile], for which the IC50 amounted to 121 nM in the test with HCT116 parental cells; 31.9 nM in test [1]; 7110 nM in test [2]; 1410 nM in test [3]; 597 nM on PRMT5/MEP50 complex.
For `Cn1ncc(-c2ccc3c(=O)[nH]nc(CN)c3c2)c1-c1ccccc1F` [Example 4-142, 4-(aminomethyl)-6-(5-(2-fluorophenyl)-1-methyl-1H-pyrazol-4-yl)phthalazin-1(2H)-one], in that order: 5740 nM, 49 nM, 1780 nM, 6270 nM and 881 nM.
`CCOc1ccc(-c2c(-c3ccc4c(=O)[nH]nc(CN)c4c3)cnn2C)cc1C#N` [Example 4-145, 5-(4-(4-(aminomethyl)-1-oxo-1,2-dihydrophthalazin-6-yl)-1-methyl-1H-pyrazol-5-yl)-2-ethoxybenzonitrile]: the IC50 in the test on HCT116 parental cells worked out at 3770 nM; in test [1], 190 nM; in test [2] it was 2160 nM; in test [3], 5490 nM; at PRMT5/MEP50 complex it was 873 nM.
The matching figures for `Cn1ncc(-c2ccc3c(=O)[nH]nc(CN)c3c2)c1-c1ccc2c(c1C#N)CCCO2` [Example 4-196, 6-(4-(4-(aminomethyl)-1-oxo-1,2-dihydrophthalazin-6-yl)-1-methyl-1H-pyrazol-5-yl)chromane-5-carbonitrile]: 9290 nM, 11 nM, 154 nM, 1320 nM and 653 nM.
The matching figures for `Cn1ncc(-c2ccc3c(=O)[nH]nc(CN)c3c2)c1-c1cccc(C2CC2)c1C#N` [Example 4-198, 2-(4-(4-(aminomethyl)-1-oxo-1,2-dihydrophthalazin-6-yl)-1-methyl-1H-pyrazol-5-yl)-6-cyclopropylbenzonitrile]: 7340 nM, 21 nM, 136 nM, 1270 nM and 111 nM.
In the case of `Cn1ncc(-c2ccc3c(=O)[nH]nc(CN)c3c2)c1-c1ccc2cccnc2c1C#N` [Example 4-192, 7-(4-(4-(aminomethyl)-1-oxo-1,2-dihydrophthalazin-6-yl)-1-methyl-1H-pyrazol-5-yl)quinoline-8-carbonitrile], the IC50 in the test on HCT116 parental cells is more than 10000 nM; in test [1], 256 nM; in test [2], 2140 nM; in test [3] it was more than 10000 nM; at PRMT5/MEP50 complex it was 890 nM.
With `Cn1ncc(-c2cc(F)c3c(=O)[nH]nc(CN)c3c2)c1-c1cccc(Cl)c1C#N` [Example 10-6, 2-(4-(4-(aminomethyl)-8-fluoro-1-oxo-1,2-dihydrophthalazin-6-yl)-1-methyl-1H-pyrazol-5-yl)-6-chlorobenzonitrile], the IC50 was more than 10000 nM in the test with HCT116 parental cells; 219 nM in test [1]; 4090 nM in test [2]; more than 10000 nM in test [3]; 6630 nM at PRMT5/MEP50 complex.
